Experimental data from publication PMC7407272, “Induction of Lysosome Membrane Permeabilization as a Therapeutic Strategy to Target Pancreatic Cancer Stem Cells” (Cancers, 2020).

Assays:
Test in all cases: KINOMEscan
[1] = biological target: T1, MAP4K5 (Homo sapiens, UniProt Q9Y4K4); assay type: binding; conditions: read-out: % Ctrl
T1 construct: purchased DiscoveRx KINOMEscan

[2] = biological target: T2, EGFR (Homo sapiens, UniProt P00533); assay type: binding; conditions: read-out: % Ctrl
T2 construct: purchased DiscoveRx KINOMEscan

[3] = biological target: T3, MAST1 (Homo sapiens, UniProt Q9Y2H9); assay type: binding; conditions: read-out: % Ctrl
T3 construct: purchased DiscoveRx KINOMEscan

[4] = biological target: T4, CDK3 (Homo sapiens, UniProt Q00526); assay type: binding; conditions: read-out: % Ctrl
T4 construct: purchased DiscoveRx KINOMEscan

[5] = biological target: T5, HUNK (Homo sapiens, UniProt P57058); assay type: binding; conditions: read-out: % Ctrl
T5 construct: purchased DiscoveRx KINOMEscan

[6] = biological target: T6, MET(M1250T) (Homo sapiens, UniProt P08581, M1250T); assay type: binding; conditions: read-out: % Ctrl
T6 construct: purchased DiscoveRx KINOMEscan

[7] = biological target: T7, GRK3 (Homo sapiens, UniProt P35626); assay type: binding; conditions: read-out: % Ctrl
T7 construct: purchased DiscoveRx KINOMEscan

[8] = biological target: T8, CSNK2A1 (Homo sapiens, UniProt P68400); assay type: binding; conditions: read-out: % Ctrl
T8 construct: purchased DiscoveRx KINOMEscan

[9] = biological target: T9, PHKG1 (Homo sapiens, UniProt Q16816); assay type: binding; conditions: read-out: % Ctrl
T9 construct: purchased DiscoveRx KINOMEscan

[10] = biological target: T10, EPHA3 (Homo sapiens, UniProt P29320); assay type: binding; conditions: read-out: % Ctrl
T10 construct: purchased DiscoveRx KINOMEscan

[11] = biological target: T11, OSR1 (Homo sapiens, UniProt O95747); assay type: binding; conditions: read-out: % Ctrl
T11 construct: purchased DiscoveRx KINOMEscan

[12] = biological target: T12, ULK1 (Homo sapiens, UniProt O75385); assay type: binding; conditions: read-out: % Ctrl
T12 construct: purchased DiscoveRx KINOMEscan

[13] = biological target: T13, EGFR(L747-S752del, P753S) (Homo sapiens, UniProt P00533, DEL747-752/P753S); assay type: binding; conditions: read-out: % Ctrl
T13 construct: purchased DiscoveRx KINOMEscan

[14] = biological target: T14, TYK2(JH1D.-cat.) (Homo sapiens, UniProt P29597); assay type: binding; conditions: read-out: % Ctrl
T14 construct: TYK2(JH1D.-cat.); purchased DiscoveRx KINOMEscan

[15] = biological target: T15, SBK1 (Homo sapiens, UniProt Q52WX2); assay type: binding; conditions: read-out: % Ctrl
T15 construct: purchased DiscoveRx KINOMEscan

[16] = biological target: T16, PRP4 (Homo sapiens, UniProt Q13523); assay type: binding; conditions: read-out: % Ctrl
T16 construct: purchased DiscoveRx KINOMEscan
Experimental: (§1) The KINOMEscan ^TM screening platform employs an active site-directed competition binding assay to quantitatively measure interactions between test compound and 468 human kinases and disease relevant mutant variants. […] The assay was performed at DiscoveRx Corporation.

[17] = biological target: T17, CDC2L5 (Homo sapiens, UniProt Q14004); assay type: binding; conditions: read-out: % Ctrl
T17 construct: purchased DiscoveRx KINOMEscan
Experimental: as §1

[18] = biological target: T18, CSNK1G3 (Homo sapiens, UniProt Q9Y6M4); assay type: binding; conditions: read-out: % Ctrl
T18 construct: purchased DiscoveRx KINOMEscan

[19] = biological target: T19, PIP5K1C (Homo sapiens, UniProt O60331); assay type: binding; conditions: read-out: % Ctrl
T19 construct: purchased DiscoveRx KINOMEscan

[20] = biological target: T20, CDK11 (Homo sapiens, UniProt Q9BWU1); assay type: binding; conditions: read-out: % Ctrl
T20 construct: purchased DiscoveRx KINOMEscan

[21] = biological target: T21, AMPK-alpha2 (Homo sapiens, UniProt P54646); assay type: binding; conditions: read-out: % Ctrl
T21 construct: purchased DiscoveRx KINOMEscan

[22] = biological target: T22, YANK3 (Homo sapiens, UniProt Q86UX6); assay type: binding; conditions: read-out: % Ctrl
T22 construct: purchased DiscoveRx KINOMEscan

[23] = biological target: T23, ERK5 (Homo sapiens, UniProt Q13164); assay type: binding; conditions: read-out: % Ctrl
T23 construct: purchased DiscoveRx KINOMEscan

[24] = biological target: T24, LATS2 (Homo sapiens, UniProt Q9NRM7); assay type: binding; conditions: read-out: % Ctrl
T24 construct: purchased DiscoveRx KINOMEscan

[25] = biological target: T25, PDPK1 (Homo sapiens, UniProt O15530); assay type: binding; conditions: read-out: % Ctrl
T25 construct: purchased DiscoveRx KINOMEscan

[26] = biological target: T26, AKT3 (Homo sapiens, UniProt Q9Y243); assay type: binding; conditions: read-out: % Ctrl
T26 construct: purchased DiscoveRx KINOMEscan

[27] = biological target: T27, PIK3CA(I800L) (Homo sapiens, UniProt P42336, I800L); assay type: binding; conditions: read-out: % Ctrl
T27 construct: purchased DiscoveRx KINOMEscan

[28] = biological target: T28, MYLK (Homo sapiens, UniProt Q15746); assay type: binding; conditions: read-out: % Ctrl
T28 construct: purchased DiscoveRx KINOMEscan

[29] = biological target: T29, TYK2(JH2D.-pseudoK.) (Homo sapiens, UniProt P29597); assay type: binding; conditions: read-out: % Ctrl
T29 construct: TYK2(JH2D.-pseudoK.); purchased DiscoveRx KINOMEscan

[30] = biological target: T30, LIMK2 (Homo sapiens, UniProt P53671); assay type: binding; conditions: read-out: % Ctrl
T30 construct: purchased DiscoveRx KINOMEscan

[31] = biological target: T31, GRK1 (Homo sapiens, UniProt Q15835); assay type: binding; conditions: read-out: % Ctrl
T31 construct: purchased DiscoveRx KINOMEscan

[32] = biological target: T32, FGFR1 (Homo sapiens, UniProt P11362); assay type: binding; conditions: read-out: % Ctrl
T32 construct: purchased DiscoveRx KINOMEscan

[33] = biological target: T33, PIK3CA(C420R) (Homo sapiens, UniProt P42336, C420R); assay type: binding; conditions: read-out: % Ctrl
T33 construct: purchased DiscoveRx KINOMEscan

[34] = test system: FLT3(ITD,F691L); assay type: binding, human; conditions: 1 µM
[35] = biological target: T34, PIP5K2B (Homo sapiens, UniProt P78356); assay type: binding; conditions: read-out: % Ctrl
T34 construct: purchased DiscoveRx KINOMEscan

[36] = biological target: T35, TSSK1B (Homo sapiens, UniProt Q9BXA7); assay type: binding; conditions: read-out: % Ctrl
T35 construct: purchased DiscoveRx KINOMEscan

[37] = biological target: T36, FLT1 (Homo sapiens, UniProt P17948); assay type: binding; conditions: read-out: % Ctrl
T36 construct: purchased DiscoveRx KINOMEscan

[38] = biological target: T37, PKNB(M.tuberculosis) (Mycobacterium tuberculosis, UniProt P9WI81); assay type: binding; conditions: read-out: % Ctrl
T37 construct: purchased DiscoveRx KINOMEscan

[39] = biological target: T38, CLK1 (Homo sapiens, UniProt P49759); assay type: binding; conditions: read-out: % Ctrl
T38 construct: purchased DiscoveRx KINOMEscan

[40] = biological target: T39, AURKC (Homo sapiens, UniProt Q9UQB9); assay type: binding; conditions: read-out: % Ctrl
T39 construct: purchased DiscoveRx KINOMEscan

[41] = biological target: T40, CSNK2A2 (Homo sapiens, UniProt P19784); assay type: binding; conditions: read-out: % Ctrl
T40 construct: purchased DiscoveRx KINOMEscan

[42] = biological target: T41, INSR (Homo sapiens, UniProt P06213); assay type: binding; conditions: read-out: % Ctrl
T41 construct: purchased DiscoveRx KINOMEscan

T17 sequence (Q14004 whole entry): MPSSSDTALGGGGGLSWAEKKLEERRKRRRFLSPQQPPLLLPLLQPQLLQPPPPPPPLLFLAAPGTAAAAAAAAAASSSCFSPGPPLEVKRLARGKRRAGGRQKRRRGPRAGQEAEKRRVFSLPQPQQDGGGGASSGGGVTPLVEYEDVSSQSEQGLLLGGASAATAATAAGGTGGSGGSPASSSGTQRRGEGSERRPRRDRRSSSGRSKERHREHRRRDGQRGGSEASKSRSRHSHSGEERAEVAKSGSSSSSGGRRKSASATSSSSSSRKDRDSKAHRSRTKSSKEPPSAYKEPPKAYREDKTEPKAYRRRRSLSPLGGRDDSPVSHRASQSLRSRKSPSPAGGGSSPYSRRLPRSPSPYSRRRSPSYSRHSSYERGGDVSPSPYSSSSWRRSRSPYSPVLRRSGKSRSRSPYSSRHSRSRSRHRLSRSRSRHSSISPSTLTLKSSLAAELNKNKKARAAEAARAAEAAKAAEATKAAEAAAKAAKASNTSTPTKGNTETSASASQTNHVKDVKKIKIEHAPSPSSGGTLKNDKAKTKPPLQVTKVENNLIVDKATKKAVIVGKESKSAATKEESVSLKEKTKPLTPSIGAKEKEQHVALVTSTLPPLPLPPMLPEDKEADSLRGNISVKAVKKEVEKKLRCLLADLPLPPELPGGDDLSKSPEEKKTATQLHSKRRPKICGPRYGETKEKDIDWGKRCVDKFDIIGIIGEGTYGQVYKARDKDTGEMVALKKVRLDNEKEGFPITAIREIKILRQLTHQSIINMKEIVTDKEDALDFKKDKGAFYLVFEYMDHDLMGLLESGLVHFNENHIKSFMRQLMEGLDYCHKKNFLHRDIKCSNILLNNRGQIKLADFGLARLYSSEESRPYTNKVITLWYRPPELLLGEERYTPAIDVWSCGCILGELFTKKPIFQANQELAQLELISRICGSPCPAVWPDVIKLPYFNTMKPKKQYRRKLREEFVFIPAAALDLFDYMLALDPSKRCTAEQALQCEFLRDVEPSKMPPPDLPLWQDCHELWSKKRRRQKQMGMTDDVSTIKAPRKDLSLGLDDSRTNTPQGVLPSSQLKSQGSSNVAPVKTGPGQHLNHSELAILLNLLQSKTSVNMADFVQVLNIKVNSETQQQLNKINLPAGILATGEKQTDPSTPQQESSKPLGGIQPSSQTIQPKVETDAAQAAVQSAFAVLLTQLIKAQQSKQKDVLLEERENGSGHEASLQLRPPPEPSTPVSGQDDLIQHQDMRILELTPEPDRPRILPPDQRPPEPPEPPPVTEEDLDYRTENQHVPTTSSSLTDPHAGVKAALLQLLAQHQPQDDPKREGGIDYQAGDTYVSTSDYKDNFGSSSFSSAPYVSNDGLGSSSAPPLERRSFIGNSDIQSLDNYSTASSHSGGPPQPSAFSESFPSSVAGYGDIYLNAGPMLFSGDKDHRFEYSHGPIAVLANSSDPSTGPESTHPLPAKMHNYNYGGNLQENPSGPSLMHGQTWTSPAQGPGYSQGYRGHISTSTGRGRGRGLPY
T36 sequence (P17948 27-1338): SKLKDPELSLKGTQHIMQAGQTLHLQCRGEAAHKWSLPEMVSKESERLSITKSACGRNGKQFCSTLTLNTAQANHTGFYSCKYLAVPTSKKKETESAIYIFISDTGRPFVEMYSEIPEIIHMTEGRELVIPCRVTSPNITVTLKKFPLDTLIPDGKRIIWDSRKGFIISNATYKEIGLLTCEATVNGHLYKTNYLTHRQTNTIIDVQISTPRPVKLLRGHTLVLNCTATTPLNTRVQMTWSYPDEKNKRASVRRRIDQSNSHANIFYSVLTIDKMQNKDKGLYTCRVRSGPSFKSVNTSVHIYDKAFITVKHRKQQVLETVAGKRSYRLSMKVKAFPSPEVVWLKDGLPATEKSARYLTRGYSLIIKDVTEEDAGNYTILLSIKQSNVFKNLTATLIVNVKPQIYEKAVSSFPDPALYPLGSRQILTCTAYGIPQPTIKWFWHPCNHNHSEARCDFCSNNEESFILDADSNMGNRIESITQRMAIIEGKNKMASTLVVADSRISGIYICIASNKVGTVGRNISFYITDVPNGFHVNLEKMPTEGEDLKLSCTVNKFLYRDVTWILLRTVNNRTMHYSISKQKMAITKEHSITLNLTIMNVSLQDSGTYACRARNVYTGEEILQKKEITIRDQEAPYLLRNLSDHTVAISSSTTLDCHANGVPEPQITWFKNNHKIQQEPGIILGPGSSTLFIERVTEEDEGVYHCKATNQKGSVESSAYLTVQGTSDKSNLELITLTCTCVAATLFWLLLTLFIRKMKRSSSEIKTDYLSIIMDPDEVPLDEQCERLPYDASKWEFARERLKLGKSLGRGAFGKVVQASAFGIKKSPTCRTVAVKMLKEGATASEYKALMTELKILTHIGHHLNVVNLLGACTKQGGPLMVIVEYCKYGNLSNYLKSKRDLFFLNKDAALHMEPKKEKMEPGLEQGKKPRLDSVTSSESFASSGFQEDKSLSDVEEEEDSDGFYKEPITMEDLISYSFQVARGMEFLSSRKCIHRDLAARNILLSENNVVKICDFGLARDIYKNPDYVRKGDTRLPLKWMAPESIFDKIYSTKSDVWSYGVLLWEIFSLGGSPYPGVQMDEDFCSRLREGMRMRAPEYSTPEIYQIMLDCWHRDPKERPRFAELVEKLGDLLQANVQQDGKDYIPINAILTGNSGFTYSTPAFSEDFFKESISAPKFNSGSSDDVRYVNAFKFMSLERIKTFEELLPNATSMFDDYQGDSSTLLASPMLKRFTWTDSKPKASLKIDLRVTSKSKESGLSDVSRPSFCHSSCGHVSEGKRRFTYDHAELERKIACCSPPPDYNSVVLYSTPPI
T9 sequence (Q16816 whole entry): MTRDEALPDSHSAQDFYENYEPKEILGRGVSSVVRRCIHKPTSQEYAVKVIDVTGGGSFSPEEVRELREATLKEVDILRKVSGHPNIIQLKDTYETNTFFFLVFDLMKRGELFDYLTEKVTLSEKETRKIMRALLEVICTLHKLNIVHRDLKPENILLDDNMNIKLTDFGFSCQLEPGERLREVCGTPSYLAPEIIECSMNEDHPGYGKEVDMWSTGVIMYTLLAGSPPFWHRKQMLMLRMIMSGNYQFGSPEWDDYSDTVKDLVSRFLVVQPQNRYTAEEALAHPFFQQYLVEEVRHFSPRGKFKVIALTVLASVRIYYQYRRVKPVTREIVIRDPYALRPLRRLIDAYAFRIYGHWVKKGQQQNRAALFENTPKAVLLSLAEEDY
T12 sequence (O75385 whole entry): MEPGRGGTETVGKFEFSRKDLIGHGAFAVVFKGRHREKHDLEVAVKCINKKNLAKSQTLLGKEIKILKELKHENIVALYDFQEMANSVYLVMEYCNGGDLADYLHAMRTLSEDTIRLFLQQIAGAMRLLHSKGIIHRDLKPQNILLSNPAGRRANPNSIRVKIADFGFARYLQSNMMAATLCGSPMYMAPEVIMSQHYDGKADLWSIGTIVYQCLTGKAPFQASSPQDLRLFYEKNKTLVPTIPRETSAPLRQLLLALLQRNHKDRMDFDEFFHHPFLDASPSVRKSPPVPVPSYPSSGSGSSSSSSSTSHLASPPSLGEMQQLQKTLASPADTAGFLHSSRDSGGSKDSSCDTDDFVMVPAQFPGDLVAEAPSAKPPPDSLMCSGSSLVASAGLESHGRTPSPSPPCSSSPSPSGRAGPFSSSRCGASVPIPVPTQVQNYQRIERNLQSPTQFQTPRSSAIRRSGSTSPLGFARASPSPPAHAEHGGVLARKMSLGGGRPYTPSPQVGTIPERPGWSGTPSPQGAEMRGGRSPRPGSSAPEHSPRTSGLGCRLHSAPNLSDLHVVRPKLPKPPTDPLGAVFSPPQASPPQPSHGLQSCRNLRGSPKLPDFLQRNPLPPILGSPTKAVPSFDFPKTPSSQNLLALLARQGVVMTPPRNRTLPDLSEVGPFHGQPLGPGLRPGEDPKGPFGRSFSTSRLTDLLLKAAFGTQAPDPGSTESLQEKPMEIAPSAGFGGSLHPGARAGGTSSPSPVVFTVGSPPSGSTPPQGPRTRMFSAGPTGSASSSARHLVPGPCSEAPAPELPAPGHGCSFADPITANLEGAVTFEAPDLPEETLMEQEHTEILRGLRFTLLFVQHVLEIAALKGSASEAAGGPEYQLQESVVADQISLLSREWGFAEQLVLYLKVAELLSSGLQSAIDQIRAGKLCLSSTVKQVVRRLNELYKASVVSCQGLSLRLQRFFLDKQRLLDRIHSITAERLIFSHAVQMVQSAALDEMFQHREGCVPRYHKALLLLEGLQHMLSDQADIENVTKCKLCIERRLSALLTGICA
T18 sequence (Q9Y6M4 whole entry): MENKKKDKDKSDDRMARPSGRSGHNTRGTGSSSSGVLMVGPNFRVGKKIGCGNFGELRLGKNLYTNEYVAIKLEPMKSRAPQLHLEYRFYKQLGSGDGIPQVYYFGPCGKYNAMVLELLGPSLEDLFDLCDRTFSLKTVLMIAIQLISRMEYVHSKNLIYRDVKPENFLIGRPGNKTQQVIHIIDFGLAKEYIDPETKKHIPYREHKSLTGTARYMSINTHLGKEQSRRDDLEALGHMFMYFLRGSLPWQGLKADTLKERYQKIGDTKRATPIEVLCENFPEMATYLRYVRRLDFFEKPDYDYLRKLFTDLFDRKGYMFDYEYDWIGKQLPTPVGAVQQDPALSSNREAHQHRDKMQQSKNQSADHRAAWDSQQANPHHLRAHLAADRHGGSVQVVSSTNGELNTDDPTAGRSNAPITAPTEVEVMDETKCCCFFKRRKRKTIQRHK
T8 sequence (P68400 whole entry): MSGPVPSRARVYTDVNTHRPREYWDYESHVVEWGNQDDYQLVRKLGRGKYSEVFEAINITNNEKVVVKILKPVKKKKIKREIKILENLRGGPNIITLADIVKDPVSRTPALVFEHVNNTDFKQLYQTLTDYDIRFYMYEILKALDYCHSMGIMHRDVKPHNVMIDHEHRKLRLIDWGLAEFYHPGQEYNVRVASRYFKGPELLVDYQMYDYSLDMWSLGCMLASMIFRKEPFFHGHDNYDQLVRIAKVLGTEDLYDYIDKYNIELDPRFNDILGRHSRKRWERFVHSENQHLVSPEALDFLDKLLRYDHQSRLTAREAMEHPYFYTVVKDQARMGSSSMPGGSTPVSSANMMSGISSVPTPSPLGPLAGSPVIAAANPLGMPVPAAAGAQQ

CN1CCC(CNc2ccc3ncc(C(=O)Nc4cccc(OC(F)(F)F)c4)n3n2)CC1 [Cpd 2] gave a remaining binding at 1 µM [1] of 92%, a remaining binding at 1 µM [2] of 94% and a remaining binding at 1 µM [3] of 59%. For the same molecule, the remaining binding at 1 µM [4] was 85%, the remaining binding at 1 µM [5] was 100% and the remaining binding at 1 µM [6] was 100%. The remaining binding at 1 µM [7] was 76%, the remaining binding at 1 µM [8] was 98% and the remaining binding at 1 µM [9] was 100%. The remaining binding at 1 µM [10] was 92%, the remaining binding at 1 µM [11] was 100% and the remaining binding at 1 µM [12] was 98%. For the same molecule, the remaining binding at 1 µM [13] was 92%, the remaining binding at 1 µM [14] was 65% and the remaining binding at 1 µM [15] was 100%. It also gave a remaining binding at 1 µM [16] of 100%, a remaining binding at 1 µM [17] of 100% and a remaining binding at 1 µM [18] of 100%. For the same molecule, the remaining binding at 1 µM [19] was 74%, the remaining binding at 1 µM [20] was 97% and the remaining binding at 1 µM [21] was 100%. For the same molecule, the remaining binding at 1 µM [22] was 99%, the remaining binding at 1 µM [23] was 100% and the remaining binding at 1 µM [24] was 99%. For the same molecule, the remaining binding at 1 µM [25] was 100%, the remaining binding at 1 µM [26] was 100% and the remaining binding at 1 µM [27] was 81%. It also gave a remaining binding at 1 µM [28] of 100%, a remaining binding at 1 µM [29] of 12% and a remaining binding at 1 µM [30] of 99%. The remaining binding at 1 µM [31] was 86%, the remaining binding at 1 µM [32] was 100% and the remaining binding at 1 µM [33] was 100%. The “% Ctrl” value [34] was 34%, the remaining binding at 1 µM [35] was 95% and the remaining binding at 1 µM [36] was 95%. For the same molecule, the remaining binding at 1 µM [37] was 100%, the remaining binding at 1 µM [38] was 90% and the remaining binding at 1 µM [39] was 100%. It also gave a remaining binding at 1 µM [40] of 95%, a remaining binding at 1 µM [41] of 39% and a remaining binding at 1 µM [42] of 100%.
